Drawing on ChEMBL document CHEMBL5725372, “Inhibitors of sodium glucose cotransporter 1” (2017), this text covers IC50 for 1 compound.

Molecules are shown by their SMILES. Bounds are passed on as bounds.

The target in this assay is T1, Sodium/glucose cotransporter 2 (Homo sapiens, UniProt P31639).
T1 sequence (P31639 whole entry): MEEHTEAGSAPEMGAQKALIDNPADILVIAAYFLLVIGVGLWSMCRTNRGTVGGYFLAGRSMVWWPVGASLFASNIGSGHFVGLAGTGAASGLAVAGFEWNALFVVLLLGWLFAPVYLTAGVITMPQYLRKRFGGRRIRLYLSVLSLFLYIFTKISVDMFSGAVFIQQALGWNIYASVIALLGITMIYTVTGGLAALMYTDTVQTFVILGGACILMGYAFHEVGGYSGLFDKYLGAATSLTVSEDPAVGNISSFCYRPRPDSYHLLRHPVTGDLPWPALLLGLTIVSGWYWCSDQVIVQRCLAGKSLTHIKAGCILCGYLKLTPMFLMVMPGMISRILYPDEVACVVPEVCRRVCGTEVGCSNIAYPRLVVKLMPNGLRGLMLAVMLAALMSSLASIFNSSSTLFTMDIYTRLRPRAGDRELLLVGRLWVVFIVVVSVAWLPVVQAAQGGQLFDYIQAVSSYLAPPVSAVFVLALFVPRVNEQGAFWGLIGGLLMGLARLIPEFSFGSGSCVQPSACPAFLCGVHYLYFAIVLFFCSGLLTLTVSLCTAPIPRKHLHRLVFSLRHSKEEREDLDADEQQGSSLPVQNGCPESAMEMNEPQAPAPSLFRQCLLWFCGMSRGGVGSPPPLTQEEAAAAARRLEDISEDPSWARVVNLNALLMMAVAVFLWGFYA
The assay can be described thus: In Vitro Human SGLT2 Inhibition Assay: Human sodium/glucose co-transporter type 2 (SGLT2; accession number P31639; GI:400337) was cloned into pIRESpuro2 vector for mammalian expression (construct: HA-SGLT2-pIRESpuro2). HEK293 cells were transfected with the human HA-SGLT2-pIRESpuro2 vector and the bulk stable cell line was selected in presence of 0.5 μg/mL of puromycin. Human HA-SGLT2 cells were maintained in DMEM media containing 10% FBS, 1% GPS and 0.5 μg/mL of puromycin. The HEK293 cells expressing the human HA-SGLT2 were seeded in 384 well plates (30,000 cells/well) in DMEM media containing 10% FBS, 1% GPS and 0.5 μg/mL of puromycin, then incubated overnight at 37 C, 5% CO2. Cells were then washed with uptake buffer (140 mM NaCl, 2 mM KCl, 1 mM CaCl2, 1 mM MgCl2, 10 mM HEPES, 5 mM Tris, 1 mg/mL bovine serum albumin (BSA), pH 7.3). Twenty microliters of uptake buffer with or without testing compounds were added to the cells. Then, 20 microliters of uptake buffer containing 14C-AMG (100 nCi) were added to the cells. The cell plates were incubated at 37° C., 5% CO2 for 1-2 hours. After washing the cells with uptake buffer, scintillation fluid was added (40 microliters/well) and 14C-AMG uptake was measured by counting radioactivity using a scintillation coulter ([…]; Packard Instruments).

For the compound `CS[C@H]1O[C@@H](c2ccc(C)c(Cc3ccc(OCCNC(=O)NC(C)(C)CO)cc3)c2)[C@H](O)[C@@H](O)[C@@H]1O`, the half-maximal inhibitory concentration (IC50) is below 0.01 µM.
